Values after ≈ are worked out from the molar mass of the structure shown.
Test system: A. baumannii isolates
Experiment: MICs (minimum inhibitory concentrations) for susceptibility to known antibiotics, British Society for Antimicrobial Chemotherapy guidelines
Assay type: cell-based, Acinetobacter baumannii
Details: 20 clinical isolates from diabetic patients; for MIC: Acinetobacter baumannii
Excerpt: All twenty isolates were further tested for MICs (minimum inhibitory concentrations) for susceptibility to several known antibiotics using the British Society for Antimicrobial Chemotherapy guidelines.

Compound | % resistance [%] | No. of resistant isolates | susceptibility/resistance of the isolates in words | MIC [µg/mL] | MIC range [µg/mL]
CC1(C)S[C@@H]2[C@H](NC(=O)[C@H](N)c3ccccc3)C(=O)N2[C@H]1C(=O)O [Ampicillin] | 100 | 20 | highly resistant |  | 
CN(C)[C@@H]1C(O)=C(C(N)=O)C(=O)[C@@]2(O)C(O)=C3C(=O)c4c(O)cccc4[C@@](C)(O)[C@H]3C[C@@H]12 [Tetracycline] | 100 | 20 |  |  | 
O=C(N[C@H](CO)[C@H](O)c1ccc([N+](=O)[O-])cc1)C(Cl)Cl [Chloramphenicol] | 100 | 20 | highly resistant | > 128 | 
Colistin | 0 | 0 | susceptible |  | 0.25 to 0.5
Gentamicin | 20 | 4 | majority was also resistant |  | 
CC1(C)[C@H](C(=O)O)N2C(=O)C[C@H]2S1(=O)=O [Sulbactam] | 100 | 20 | highly resistant |  | 
Cc1onc(-c2ccccc2)c1C(=O)N[C@@H]1C(=O)N2[C@@H]1SC(C)(C)[C@@H]2C(=O)O [Oxacillin] | 100 | 20 | highly resistant | > 128 | 
C[C@@H](O)[C@H]1C(=O)N2C(C(=O)O)=C(S[C@@H]3CN[C@H](C(=O)Nc4cccc(C(=O)O)c4)C3)[C@H](C)[C@H]12 [Ertapenem] | 100 | 20 | highly resistant | 4 to 64 (≈ 8.41 to 135 µM) | 
C[C@@H](O)[C@H]1C(=O)N2C(C(=O)O)=C(S[C@@H]3CN[C@H](C(=O)N(C)C)C3)[C@H](C)[C@H]12 [Meropenem] | 20 | 4 | all but four isolates (which had low-level resistance) were susceptible | 4 to 8 (≈ 10.4 to 20.9 µM) | 
CO[C@H]1/C=C/O[C@@]2(C)Oc3c(C)c(O)c4c(O)c(c(/C=N/N5CCN(C)CC5)c(O)c4c3C2=O)NC(=O)/C(C)=C\C=C\[C@H](C)[C@H](O)[C@@H](C)[C@@H](O)[C@@H](C)[C@H](OC(C)=O)[C@@H]1C [Rifampicin] | 80 | 16 |  | 4 to 32 (≈ 4.86 to 38.9 µM) | 
C[C@@H](O)[C@H]1C(=O)N2C(C(=O)O)=C(SCCN=CN)C[C@H]12 [Imipenem] | 0 | 0 |  | 0.25 to 2 (≈ 0.835 to 6.68 µM) | 
CC1COc2c(N3CCN(C)CC3)c(F)cc3c(=O)c(C(=O)O)cn1c23 (stereo not shown) [Ofloxacin] | 70 | 14 |  | 1 to 32 (≈ 2.77 to 88.6 µM) | 
CCn1cc(C(=O)O)c(=O)c2ccc(C)nc21 [Nalidixic Acid] | 75 | 15 | majority was also resistant |  | 

— patent publication US8232059B2, “Method of identifying A. baumannii with OXA-131-like drug resistance in diabetic patients” (priority 2010, dated 2012)
